Earlier results on one compound are cited in patent US20240139257A1, “METHODS AND COMPOSITIONS FOR ALOPECIA TREATMENT USING FIBROBLASTS AND FIBROBLAST-DERIVED PRODUCTS” (FIGENE, LLC, priority 2021, published 2024).

Data set [1] relates to interferon (IFN)-gamma mRNA. Conditions: scalp biopsies, AA patients, after successful DCP treatment; still above the constitutive level found in controls.
Data set [2] concerns IL-2 mRNA. Conditions: scalp biopsies, AA patients, after successful DCP treatment.
The test system of data set [3] is IL-8 mRNA. To be noted: scalp biopsies, AA patients, after successful DCP treatment.
For data set [4], the system named is IL-10 mRNA. Conditions: scalp biopsies, AA patients, after successful DCP treatment.
The subject of data set [5] is tumor necrosis factor-alpha mRNA. To be noted: scalp biopsies, AA patients, after successful DCP treatment.
Data set [6] relates to alopecia areata (AA).

On to `O=c1c(-c2ccccc2)c1-c1ccccc1` [DCP, diphenylcyclopropenone], for which, in data set [1], the “IFN-gamma expression after DCP treatment” value was “reduced”. Moreover, the “mRNA expression of IL-2 after DCP treatment” value in data set [2] is given as “increased”. For the same compound, the “mRNA expression of IL-8 after DCP treatment” value in data set [3] is given as “increased”. In addition, the “mRNA expression of IL-10 after DCP treatment” value in data set [4] is “increased”. In data set [5], the “mRNA expression of tumor necrosis factor-alpha after DCP treatment” value is reported as “increased”. Moreover, the “Therapeutic benefit of topical immunotherapy in AA patients” value in data set [6] is “some therapeutic benefits”.
